# Laboratory results: PMC3454376, “Salidroside Improves Behavioral and Histological Outcomes and Reduces Apoptosis via PI3K/Akt Signaling after Experimental Traumatic Brain Injury” (PLoS ONE, 2012)
# Test system: Bcl-2/Bax ratio
# Experiment: Western blot, whole cell and mitochondrial fraction
# Type: in vivo, mice
# Settings: 20 mg/kg ip 10 min after CCI
# Description: Three sets of experiments were performed. The first set was to investigate the protective effects of salidroside. All animals were randomized into 1 of 3 groups (sham injury, CCI + vehicle, CCI + SALD 20). Surgery/injury, behavioral testing, and tissue analyses were performed by different individuals. Behavioral testing and tissue analyses were performed by individuals blinded to the treatment group. Salidroside (Cayman Chemical, Ann Arbor, MI, USA) dissolved in normal saline (0.25 mL) or a corresponding volume of vehicle (saline) was administered intraperitoneally 10 min following injury. Testing after injury was completed as follows: 1) behavioral testing at days 1, 4, 7, 14, 21, and 28 (n = 8–10 mice/group); 2) cresyl violet staining at day 28 (n = 9 mice/group); 3) histology, determination of brain water content, and western blot analysis at day 1 or 3 (n = 5–6 mice/group). To determine the optimal dose of salidroside, a pilot study was performed using 2 different doses (20 and 50 mg/kg) administered 10 min after injury, and neurological deficits and tissue damage were evaluated as the main outcomes. […] Protein concentration was determined by Bradford reagent spectrophotometrically at A595. […] The relative intensity of protein signals was normalized to the corresponding β-actin intensity and was quantified by densitometric analysis with the use of Image J software. […]
compound,measurement,setting,value
"OC[C@H]1O[C@@H](OCCc2ccc(O)cc2)[C@H](O)[C@@H](O)[C@@H]1O [SALD, salidroside]","mitochondrial Bcl-2/Bax ratio, % of the level in vehicle injured brains","day 1, P<0.05",150.6%
same,"whole cell Bcl-2/Bax ratio, slight increase versus vehicle",whole cell level,did not reach statistical significance
